Measured values published in publication PMC5454964, “Isolation of Rice Bran Lectins and Characterization of Their Unique Behavior in Caco-2 Cells” (International Journal of Molecular Sciences, 2017).

Assays:
[1] = biological target: T1, RBA2 (rice bran lectin 2) (Oryza sativa, UniProt Q0JF21); assay: hemagglutination inhibition (rabbit erythrocytes); type: biochemical; conditions: pH 7.5, room temperature, 2-fold serial dilution
T1 construct: gene Os04g0173800; noncovalent homodimer of 12-kDa subunits, 25 kDa
T1 sequence (Q0JF21 123-201): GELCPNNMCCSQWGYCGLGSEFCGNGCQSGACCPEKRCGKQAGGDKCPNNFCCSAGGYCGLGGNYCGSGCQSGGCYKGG
Excerpt: hemagglutination inhibition (rabbit erythrocytes) on RBA2 (rice bran lectin 2)

[2] = biological target: T2, RBA1 (rice bran lectin 1) (Oryza sativa, UniProt Q0JF21); assay: hemagglutination inhibition (rabbit erythrocytes); type: biochemical; conditions: pH 7.5, room temperature, 2-fold serial dilution
T2 construct: gene Os04g0173800; disulfide-linked heterodimer of 20- and 12-kDa subunits, 32-33 kDa
T2 sequence (Q0JF21 29-122): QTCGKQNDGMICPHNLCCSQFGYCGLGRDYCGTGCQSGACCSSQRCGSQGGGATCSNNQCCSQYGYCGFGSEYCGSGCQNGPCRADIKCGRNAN
T2 sequence (Q0JF21 123-201): T1 sequence (Q0JF21 123-201)
Excerpt: hemagglutination inhibition (rabbit erythrocytes) on RBA1 (rice bran lectin 1)

[3] = biological target: T3, bovine serum albumin (BSA) (Bos taurus, UniProt P02769); assay: frontal affinity chromatography, immobilised protein; type: binding; conditions: pH 7.3, 25 °C, EDTA-PB
T3 construct: gene ALB
T3 sequence (P02769 25-607): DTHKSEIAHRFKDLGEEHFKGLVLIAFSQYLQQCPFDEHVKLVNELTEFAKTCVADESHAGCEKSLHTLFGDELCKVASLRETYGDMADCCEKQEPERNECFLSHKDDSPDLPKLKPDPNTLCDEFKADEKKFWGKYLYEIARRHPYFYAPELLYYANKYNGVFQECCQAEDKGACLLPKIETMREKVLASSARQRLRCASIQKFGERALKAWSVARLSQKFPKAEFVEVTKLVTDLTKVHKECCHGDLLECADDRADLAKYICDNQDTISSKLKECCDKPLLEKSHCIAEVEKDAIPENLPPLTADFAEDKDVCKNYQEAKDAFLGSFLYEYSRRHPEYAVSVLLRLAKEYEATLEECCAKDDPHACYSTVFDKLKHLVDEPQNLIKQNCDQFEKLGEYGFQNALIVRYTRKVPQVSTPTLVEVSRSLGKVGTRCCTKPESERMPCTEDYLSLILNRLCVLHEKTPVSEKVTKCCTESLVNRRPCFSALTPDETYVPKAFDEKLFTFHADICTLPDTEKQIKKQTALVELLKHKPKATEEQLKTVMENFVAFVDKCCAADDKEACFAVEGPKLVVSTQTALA

Structure (SMILES)	RBA2 [1] [mM]	RBA1 [2] [mM]	hemagglutination inhibition concentration [1] [mM]	V - V0 [3]
CC(=O)N[C@H]1[C@H](O[C@H]2[C@H](O)[C@@H](NC(C)=O)[C@H](O[C@H]3[C@H](O)[C@@H](NC(C)=O)C(O)O[C@@H]3CO)O[C@@H]2CO)O[C@H](CO)[C@@H](O[C@@H]2O[C@H](CO)[C@@H](O[C@@H]3O[C@H](CO)[C@@H](O)[C@H](O)[C@H]3NC(C)=O)[C@H](O)[C@H]2NC(C)=O)[C@@H]1O (stereo partly shown) [Penta-N-acetylchitopentaose]	0.04	0.02	–	–
CC(=O)N[C@H]1C(O)O[C@H](CO)[C@H](O)[C@@H]1O (stereo partly drawn) [N-Acetyl D-galactosamine]	50	–	–	–
N[C@H]1[C@H](O[C@H]2[C@H](O)[C@@H](N)C(O)O[C@@H]2CO)O[C@H](CO)[C@@H](O)[C@@H]1O (stereo partly shown) [Chitobiose]	–	100	–	–
N[C@H]1C(O)O[C@H](CO)[C@@H](O)[C@@H]1O (stereo partly drawn) [D-Glucosamine]	3.1	> 200	–	–
CC(=O)N[C@H]1[C@H](O[C@H]2[C@H](O)[C@@H](NC(C)=O)C(O)O[C@@H]2CO)O[C@H](CO)[C@@H](O)[C@@H]1O (stereo partly shown) [Di-N-acetylchitobiose]	6.25	0.78	–	–
CC(=O)N[C@H]1[C@H](O[C@H]2[C@H](O)[C@@H](NC(C)=O)C(O)O[C@@H]2CO)O[C@H](CO)[C@@H](O[C@@H]2O[C@H](CO)[C@@H](O)[C@H](O)[C@H]2NC(C)=O)[C@@H]1O (stereo partly shown) [Tri-N-acetylchitotriose]	0.39	0.09	–	–
CC(=O)N[C@H]1[C@H](O[C@H]2[C@H](O)[C@@H](NC(C)=O)[C@H](O[C@H]3[C@H](O)[C@@H](NC(C)=O)C(O)O[C@@H]3CO)O[C@@H]2CO)O[C@H](CO)[C@@H](O[C@@H]2O[C@H](CO)[C@@H](O[C@@H]3O[C@H](CO)[C@@H](O[C@@H]4O[C@H](CO)[C@@H](O)[C@H](O)[C@H]4NC(C)=O)[C@H](O)[C@H]3NC(C)=O)[C@H](O)[C@H]2NC(C)=O)[C@@H]1O (stereo partly shown) [Hexa-N-acetylchitohexaose]	–	0.04	0.04	–
CC(=O)N[C@H]1[C@H](O[C@H]2[C@H](O)[C@@H](NC(C)=O)C(O)O[C@@H]2CO)O[C@H](CO)[C@@H](O[C@@H]2O[C@H](CO)[C@@H](O[C@@H]3O[C@H](CO)[C@@H](O)[C@H](O)[C@H]3NC(C)=O)[C@H](O)[C@H]2NC(C)=O)[C@@H]1O (stereo partly shown) [Tetra-N-acetylchitotetraose]	–	0.04	0.04	–
CC(=O)N[C@H]1C(O)O[C@H](CO)[C@@H](O)[C@@H]1O (stereo partly drawn) [N-Acetyl D-glucosamine]	50	25	–	–
COC(=O)c1ccccc1-c1c2ccc(=N)cc-2oc2cc(N)ccc12 [Rhodamine 123]	–	–	–	BSA showed a similar interaction with RH.
N[C@H]1C(O)O[C@H](CO)[C@H](O)[C@@H]1O (stereo partly drawn) [D-Galactosamine]	0.8	> 200	–	–
